Results reported in the supplement of paper PMC7600603.

Experiments:
[1] = test system: DLD1 NRF2-WT; settings: 72 h; CellTiter-Glo viability
In short: (§1)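 In 384-well plates, library compounds were applied at 5 concentrations spanning a 10,000-fold range to isogenic DLD1 colorectal cancer cells, NRF2 wild-type or CRISPR gain-of-function, maintained in DMEM with 10% FBS. A Pherastar FS reader recorded CellTiter-Glo signal at 72 h, with normalisation to vehicle wells and 100-μM positive-control wells. Curves were fitted with a four-parameter logistic model. EC50 and drug sensitivity score, a normalised area under the curve, came from those curves.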

[2] = test system: DLD1 NRF2-WT; assay: drug sensitivity score (DSS) viability (DSS score); higher = more sensitive; extreme values may be limits of the assay; settings: 72 h; CellTiter-Glo viability
In short: as §1

[3] = test system: DLD1 NRF2-WT; assay: TC50 cytotoxicity; higher = less toxic; settings: 72 h; CellTox Green cytotoxicity
In short: (§2)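 Isogenic DLD1 colorectal cancer cells differing in NRF2 status, one line edited by CRISPR, were cultured in DMEM with 10% FBS and treated in 384-well plates with library compounds at 5 concentrations spanning a 10,000-fold range. Plates were read after 72 h with CellTox Green on a Pherastar FS reader, and signals were normalised to vehicle wells and 100-μM positive-control wells. Cytotoxicity was summarised as TC50 and as a drug sensitivity score, a normalised area under the curve, both from logistic dose-response fits.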

[4] = test system: DLD1 NRF2-GOF; assay: TC50 cytotoxicity; higher = less toxic; settings: 72 h; CellTox Green cytotoxicity
In short: as §2

[5] = test system: DLD1 NRF2-WT; assay: drug sensitivity score (DSS) cytotoxicity (DSS score); higher = more toxic; extreme values may be limits of the assay; settings: 72 h; CellTox Green cytotoxicity
In short: as §2

[6] = test system: DLD1 NRF2-GOF; assay: as above; settings: 72 h; CellTox Green cytotoxicity
In short: as §2

Row | SMILES | EC50 viability [1] | drug sensitivity score [2] | TC50 cytotoxicity [3] | TC50 cytotoxicity [4] | drug sensitivity score [5] | drug sensitivity score [6]
1 | C[C@@H](Oc1cc(-c2cnn(C3CCNCC3)c2)cnc1N)c1c(Cl)ccc(F)c1Cl [Crizotinib] | > 1 µM | 0 |  |  |  | 
2 | C=C1C[C@@H]2CC[C@@]34C[C@H]5O[C@H]6[C@@H](O3)[C@H]3O[C@H](CC[C@@H]3O[C@H]6[C@H]5O4)CC(=O)C[C@@H]3[C@@H](OC)[C@@H](C[C@H](O)CN)O[C@H]3C[C@H]3O[C@@H](CC[C@@H]1O2)C[C@@H](C)C3=C [Eribulin] | 0.0051 µM | 22.6 | > 1 µM | > 1 µM | 3.3 | 4.4
3 | Cc1ccc(NC(=O)c2ccc(CN3CCN(C)CC3)cc2)cc1Nc1nccc(-c2cccnc2)n1 [Imatinib] | 4.5 µM | 1.2 | > 10 µM | > 10 µM | 0 | 0
4 | CC(C)NC[C@@H](C(=O)N1CCN(c2ncnc3c2[C@H](C)C[C@H]3O)CC1)c1ccc(Cl)cc1 [Ipatasertib] | > 10 µM | 1.3 | > 10 µM | > 10 µM | 0 | 0
5 | Cc1cc(OCc2nnc(SC3CCCC3)n2-c2cccnc2)ccc1-c1ccc(S(C)(=O)=O)cc1 [NMS-873] | 0.273 µM | 5.5 |  |  |  | 
6 | Cn1c(Nc2ccc(C(F)(F)F)cc2)nc2cc(Oc3ccnc(-c4ncc(C(F)(F)F)[nH]4)c3)ccc21 [NVP-RAF265] | 0.191 µM | 3.2 |  |  |  | 
7 | O=C(O)C(=O)O.[NH-][C@@H]1CCCC[C@H]1[NH-].[Pt+2] [Oxaliplatin] | 25.3 µM | 3 |  |  |  | 
8 | CC(C)N(CCCNC(=O)Nc1ccc(C(C)(C)C)cc1)C[C@H]1O[C@@H](n2cc(Br)c3c(N)ncnc32)[C@H](O)[C@@H]1O [SGC0946] |  | 0.9 | > 10 µM | > 10 µM | 0 | 0
9 | CC[C@@H](C(=O)[C@@H](C)[C@@H](O)[C@H](C)[C@@H]1O[C@@H]([C@@H](CC)C(=O)O)CC[C@@H]1C)[C@H]1O[C@]2(C=C[C@@H](O)[C@]3(CC[C@@](C)([C@H]4CC[C@](O)(CC)[C@H](C)O4)O3)O2)[C@H](C)C[C@@H]1C [Salinomycin] |  |  | > 50 µM | > 50 µM | 0.2 | 0
10 | CO[C@H]1C[C@@H]2CC[C@@H](C)[C@@](O)(O2)C(=O)C(=O)N2CCCC[C@H]2C(=O)O[C@H]([C@H](C)C[C@@H]2CC[C@@H](O)[C@H](OC)C2)CC(=O)[C@H](C)/C=C(\C)[C@@H](O)[C@@H](OC)C(=O)[C@H](C)C[C@H](C)/C=C/C=C/C=C/1C [Sirolimus] |  | 3.1 |  |  |  | 
11 | Cc1c(C(=O)Nc2ccc(N3C[C@@H](C)O[C@@H](C)C3)nc2)cccc1-c1ccc(OC(F)(F)F)cc1 [Sonidegib] |  |  | > 10 µM | > 10 µM | 0 | 0
12 | C=CCN(/C=C1/C(=O)O[C@H](COC)[C@@]2(C)C1=C(O)C(=O)C1=C2[C@H](OC(C)=O)C[C@]2(C)C(=O)CC[C@@H]12)CC=C [Sonolisib] |  |  | > 10 µM | > 10 µM | 0 | 0
13 | CC(C)n1cnc2c(NCCc3ccc(O)cc3)nc(-c3csc4ccccc34)nc21 [StemRegenin 1] | 0.855 µM | 3.9 |  |  |  | 
14 | Cc1cc(C(C)Nc2ccccc2)c2nc(N3CCOCC3)cc(=O)n2c1 (stereo unspecified) [TGX-221] |  |  | > 10 µM | > 10 µM | 0 | 0
15 | Nc1nc(NC2CC2)cc(-c2cccc(Cl)c2Cl)n1 [TH588] |  |  | > 25 µM | > 25 µM | 0 | 0
16 | CN(C(=O)c1ccc(F)cc1C(F)(F)F)C1CCN(c2nnc(-c3ccnn3C)c3ccccc23)CC1 [Taladegib] |  |  | > 10 µM | > 10 µM | 0 | 0
17 | C[C@@H]1CN(Cc2ccc(F)cc2)[C@@H](C)CN1C(=O)c1cc2c(C(=O)C(=O)N(C)C)cn(C)c2cc1Cl [Talmapimod] |  |  | > 10 µM | > 10 µM | 0 | 0
18 | O[C@H]1CC[C@H](Nc2ncc3nc(Nc4c(F)cc(F)cc4F)n([C@H]4CCOC4)c3n2)CC1 [Tanzisertib] |  |  | > 10 µM | > 10 µM | 0 | 0
19 | C[C@@H]1CCN(C(=O)CC#N)C[C@@H]1N(C)c1ncnc2[nH]ccc12 [Tofacitinib] |  |  | > 5 µM | > 5 µM | 0 | 0
20 | NC(=S)N/N=C/c1ncccc1N [Triapine] |  |  | > 10 µM | > 10 µM | 0 | 0
21 | COC(=O)c1ccc2c(c1)[nH]c1ncnc(NCCCN3CCCCC3)c12 [UM729] |  |  | > 10 µM | > 10 µM | 0 | 0
22 | COc1cc2c(NC3CCN(C(C)C)CC3)nc(N3CCC(F)(F)CC3)nc2cc1OCCCN1CCCC1 [UNC0642] |  |  | > 10 µM | > 10 µM | 0 | 0.1
23 | CCCCNc1ncc(C(=O)NCc2ccc(-n3ccnc3)cc2)c(NC2CCC(O)CC2)n1 (stereo unspecified) [UNC2881] |  |  | > 2.5 µM | > 2.5 µM | 0 | 0
24 | NC(=O)c1cccc(-c2cccc(OC(=O)NC3CCCCC3)c2)c1 [URB597] |  |  | > 1 µM | > 1 µM | 0 | 0
25 | O=C(O)CC1CC(c2ccccc2)=NO1 (stereo unspecified) [VGX-1027] |  |  | > 10 µM | > 10 µM | 0 | 0
26 | O=C(/C=C\n1cnc(-c2cc(C(F)(F)F)cc(C(F)(F)F)c2)n1)NNc1ccccn1 [Verdinexor] |  |  | > 1 µM | > 1 µM | 0 | 0
27 | CC[C@]1(O)C[C@H]2CN(CCc3c([nH]c4ccccc34)[C@@](C(=O)OC)(c3cc4c(cc3OC)N(C)[C@H]3[C@@](O)(C(=O)OC)[C@H](OC(C)=O)[C@]5(CC)C=CCN6CC[C@]43[C@@H]65)C2)C1 [Vinblastine] | 0.0052 µM | 22.5 |  | > 1 µM | 4.1 | 3.4
28 | CS(=O)(=O)c1ccc(C(=O)Nc2ccc(Cl)c(-c3ccccn3)c2)c(Cl)c1 [Vismodegib] |  |  | > 10 µM | > 10 µM | 0 | 0
29 | Oc1nc(-c2ccc(C(F)(F)F)cc2)nc2c1CSCC2 [XAV-939] |  |  | > 10 µM | > 10 µM | 0 | 0
